Measurements from the NIST ThermoML archive (doi:10.1016/j.jct.2008.04.006).

How the values were obtained:
[1] = 100 kPa, Liquid
[2] = refractive index (Na D-line) (dimensionless); details: 298.15 K; 101.33 kPa; Liquid; Standard Abbe refractometry
[3] = xn = mol fraction of the nth substance listed; details: 100 kPa, Liquid
[4] = refractive index (Na D-line) (dimensionless); xn = mol fraction of the nth substance listed; details: 298.15 K, 100 kPa, Liquid, Standard Abbe refractometry

COS(=O)(=O)[O-].Cn1cc[n+](C)c1 [1,3-dimethylimidazolium methylsulfate]
[1]
Details | mass density [kg/m3] | viscosity [mPa·s]
298.15 K | 1329.12 | 77.7
313.15 K | 1318.56 | 41.68
328.15 K | 1308.13 | 25.21

Details | refractive index
[2] | 1.48296

CCO [ethanol]
[1]
Details | mass density [kg/m3] | viscosity [mPa·s]
298.15 K | 785.46 | 1.082
313.15 K | 772 | 0.827
328.15 K | 758.55 | 0.641

Details | refractive index
[2] | 1.36023

COS(=O)(=O)[O-].Cn1cc[n+](C)c1 [1,3-dimethylimidazolium methylsulfate] + O
[3]
Details | mass density, 298.15 K [kg/m3] | mass density, 313.15 K [kg/m3] | mass density, 328.15 K [kg/m3] | viscosity, 298.15 K [mPa·s] | viscosity, 313.15 K [mPa·s] | viscosity, 328.15 K [mPa·s]
x2 = 0 | 1329.12 | 1318.56 | 1308.13 | 77.7 | 41.68 | 25.21
x2 = 0.0497 | 1326.99 | 1316.44 | 1306.09 | 68.1 | 37.51 | 23.95
x2 = 0.1475 | 1322.81 | 1312.31 | 1301.96 | 53.6 | 30.44 | 19.85
x2 = 0.2128 | 1319.54 | 1309.03 | 1298.64 | 44.93 | 25.86 | 17.11
x2 = 0.3086 | 1313.75 | 1303.27 | 1292.81 | 35.23 | 20.76 | 13.79
x2 = 0.3869 | 1307.71 | 1297.25 | 1286.89 | 27.57 | 16.93 | 10.5
x2 = 0.4947 | 1296.97 | 1286.56 | 1276.22 | 19.55 | 12.41 | 8.521
x2 = 0.5959 | 1282.77 | 1272.39 | 1262.04 | 13.88 | 9.041 | 6.336
x2 = 0.6947 | 1262.17 | 1251.91 | 1240.95 | 9.599 | 6.368 | 4.518
x2 = 0.7966 | 1226.82 | 1216.82 | 1206.64 | 5.928 | 4.027 | 2.917
x2 = 0.8962 | 1162.06 | 1152.98 | 1143.43 | 2.925 | 2.069 | 1.548
x2 = 0.9485 | 1100.41 | 1092.64 | 1084.03 | 1.745 | 1.261 | 0.99

[4]
Details | refractive index
x2 = 0 | 1.48296
x2 = 0.0497 | 1.48187
x2 = 0.1475 | 1.47986
x2 = 0.2128 | 1.47824
x2 = 0.3086 | 1.47536
x2 = 0.3869 | 1.47252
x2 = 0.4947 | 1.46739
x2 = 0.5959 | 1.46071
x2 = 0.6947 | 1.45105
x2 = 0.7966 | 1.43485
x2 = 0.8962 | 1.40572
x2 = 0.9485 | 1.37848

COS(=O)(=O)[O-].Cn1cc[n+](C)c1 [1,3-dimethylimidazolium methylsulfate] + CCO
[3]
Details | mass density, 298.15 K [kg/m3] | mass density, 313.15 K [kg/m3] | mass density, 328.15 K [kg/m3] | viscosity, 298.15 K [mPa·s] | viscosity, 313.15 K [mPa·s] | viscosity, 328.15 K [mPa·s]
x2 = 0 | 1329.12 | 1318.56 | 1308.13 | 77.7 | 41.68 | 25.21
x2 = 0.0669 | 1316.47 | 1305.89 | 1295.53 | 62.1 | 34.42 | 21.43
x2 = 0.1228 | 1305.19 | 1294.59 | 1284.2 | 51.6 | 29.38 | 18.72
x2 = 0.2212 | 1282.46 | 1271.77 | 1261.38 | 36.97 | 22.8 | 15.07
x2 = 0.2944 | 1263.18 | 1252.46 | 1241.97 | 29.56 | 17.97 | 12.28
x2 = 0.3984 | 1231.22 | 1220.4 | 1209.57 | 20.26 | 12.87 | 9.141
x2 = 0.5 | 1192.8 | 1181.88 | 1171.12 | 12.83 | 8.823 | 6.461
x2 = 0.5926 | 1150.85 | 1139.74 | 1128.74 | 8.784 | 6.258 | 4.727
x2 = 0.6921 | 1094.3 | 1082.98 | 1071.75 | 5.706 | 4.309 | 3.246
x2 = 0.797 | 1018.1 | 1006.41 | 994.72 | 3.513 | 2.649 | 2.077
x2 = 0.8957 | 923.16 | 910.98 | 898.7 | 2.096 | 1.603 | 1.265
x2 = 0.945 | 864.26 | 851.76 | 839.06 | 1.602 | 1.225 | 0.961

[4]
Details | refractive index
x2 = 0 | 1.48296
x2 = 0.0669 | 1.48028
x2 = 0.1228 | 1.47773
x2 = 0.2212 | 1.47336
x2 = 0.2944 | 1.46936
x2 = 0.3984 | 1.46252
x2 = 0.5 | 1.45421
x2 = 0.5926 | 1.44554
x2 = 0.6921 | 1.43248
x2 = 0.797 | 1.41494
x2 = 0.8957 | 1.39329
x2 = 0.945 | 1.37874

CCO [ethanol] + COS(=O)(=O)[O-].Cn1cc[n+](C)c1
[3], x1 = 1
Details | mass density [kg/m3] | viscosity [mPa·s]
298.15 K | 785.46 | 1.082
313.15 K | 772 | 0.827
328.15 K | 758.55 | 0.641

Details | refractive index
[4], x1 = 1 | 1.36023
